The conditions of data set [1]: cited from earlier work.
Data set [2] in a line: Elution of steroid from drug eluting leads/electrodes in conventional media (PBS without additives). The format is physicochemical. The following applies: conventional media systems, e.g. media with just a surfactant; result in words. An excerpt: The percent elution was less than 7% in 10 days from the controlled-release device (CRD) leads when PBS ([…]) without any additives was used.

Data set [3] is classed as physicochemical. How it is done:
To evaluate buffers with different pH, Dexamethasone sodium phosphate can be dissolved in an elution media (e.g. one of the different embodiments of the invention disclosed herein). […] This concentration was about 10 times the concentration that might be observed if the drug from the typical device was completely eluted in about 75 mL of media.

Like-named read-outs stand apart in the source and are kept apart here.

`OCc1ccccc1` [Benzyl alcohol, Phenylmethanol]: in data set [1], the solubility in water is 4 g/100 mL.

Consider `C[C@@H]1C[C@H]2[C@@H]3CCC4=CC(=O)C=C[C@]4(C)[C@@]3(F)[C@@H](O)C[C@]2(C)[C@@]1(O)C(=O)COP(=O)(O)O` [Dexamethasone sodium phosphate], for which the solubility in water entry in data set [1] (result in words, listed as dexamethasone sodium phosphate) is reported as “water soluble”; in data set [1] (result in words), “freely soluble”. Further, in data set [2], the “elution in conventional media/solvents” value is listed as “minimal”. Further, the “stability with respect to pH (order)” value in data set [3] is recorded as “pH 4>pH 7.5>pH 9”.

Values taken from patent US8497133B1, “Terpene media compositions for eluting compounds from matrices and methods for making and using them” (Medtronic MiniMed, Inc., priority 2009, dated 2013).
